Counter-ions that a name gives are not always drawn.
Columns and labels:
[1] = biological target: T1, HerA-NurA (Saccharolobus solfataricus, UniProt Q97WG8); test: native nESI mass spectrometry titration; assay type: binding; settings: 5 uM protein, 0-1 mM ligand, 2 mM MgCl2, 25 °C 1 h, then 200 mM ammonium acetate pH 7; also tested with 25 bp dsDNA
T1 construct: purified HerA hexamer with NurA dimer; with DNA double-strand break repair nuclease NurA

[2] = biological target: T2, HerA (Saccharolobus solfataricus, UniProt Q97WG8); test: native nESI mass spectrometry titration; assay type: binding; settings: increasing ATP-γ-S; no NurA; 200 mM ammonium acetate
T2 construct: purified HerA without NurA, hexamer and heptamer
T2 sequence (Q97WG8 1-500): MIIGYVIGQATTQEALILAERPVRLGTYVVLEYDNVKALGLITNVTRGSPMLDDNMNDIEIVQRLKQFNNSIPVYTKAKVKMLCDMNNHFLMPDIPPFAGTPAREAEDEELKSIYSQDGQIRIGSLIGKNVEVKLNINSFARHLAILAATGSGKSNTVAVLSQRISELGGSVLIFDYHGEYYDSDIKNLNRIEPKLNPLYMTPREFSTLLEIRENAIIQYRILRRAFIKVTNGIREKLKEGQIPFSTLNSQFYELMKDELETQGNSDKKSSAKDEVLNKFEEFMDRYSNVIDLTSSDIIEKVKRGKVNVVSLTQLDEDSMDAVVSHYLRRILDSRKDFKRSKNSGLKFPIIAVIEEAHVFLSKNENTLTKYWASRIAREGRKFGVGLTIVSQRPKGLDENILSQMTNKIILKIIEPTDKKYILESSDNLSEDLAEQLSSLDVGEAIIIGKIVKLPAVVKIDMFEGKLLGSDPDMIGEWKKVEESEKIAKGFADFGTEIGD

T1 sequence (Q97WH1 whole entry, one chain of several, further chain): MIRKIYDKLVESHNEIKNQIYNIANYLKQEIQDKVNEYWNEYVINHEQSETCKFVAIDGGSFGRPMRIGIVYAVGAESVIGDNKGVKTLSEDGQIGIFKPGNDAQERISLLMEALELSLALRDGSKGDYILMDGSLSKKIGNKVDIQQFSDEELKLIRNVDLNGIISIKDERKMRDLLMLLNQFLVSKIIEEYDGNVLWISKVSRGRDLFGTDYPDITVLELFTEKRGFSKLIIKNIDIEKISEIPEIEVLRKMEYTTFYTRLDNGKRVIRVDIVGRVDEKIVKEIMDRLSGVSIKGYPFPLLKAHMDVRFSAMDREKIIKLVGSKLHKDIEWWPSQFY

Compound | native nESI mass spectrometry titration [1] | native nESI mass spectrometry titration [2]
Nc1ncnc2c1ncn2[C@@H]1O[C@H](COP(=O)(O)OP(=O)(O)O)[C@@H](O)[C@H]1O [ADP] | ATP-γ-S and ADP titrations experiments determined the pairwise nucleotide binding to HerA-NurA alone | 
Nc1ncnc2c1ncn2[C@@H]1O[C@H](COP(=O)(O)OP(=O)(O)OP(O)(O)=S)[C@@H](O)[C@H]1O [ATP-γ-S, adenosine 5′-O-(3-thiotriphosphate), tetralithium salt] | ATP-γ-S and ADP titrations experiments determined the pairwise nucleotide binding to HerA-NurA alone | Number of ATP-γ-S molecules bound is shown on the spectra

Source: paper PMC6235531, “Analyzing Protein Architectures and Protein-Ligand Complexes by Integrative Structural Mass Spectrometry” (Journal of Visualized Experiments : JoVE, 2018)
